The results in this text go back to US8501770B2 (ArQule, Inc., priority 2009, dated 2013).

Full-length inactive AKT1, sequence (P31749 whole entry): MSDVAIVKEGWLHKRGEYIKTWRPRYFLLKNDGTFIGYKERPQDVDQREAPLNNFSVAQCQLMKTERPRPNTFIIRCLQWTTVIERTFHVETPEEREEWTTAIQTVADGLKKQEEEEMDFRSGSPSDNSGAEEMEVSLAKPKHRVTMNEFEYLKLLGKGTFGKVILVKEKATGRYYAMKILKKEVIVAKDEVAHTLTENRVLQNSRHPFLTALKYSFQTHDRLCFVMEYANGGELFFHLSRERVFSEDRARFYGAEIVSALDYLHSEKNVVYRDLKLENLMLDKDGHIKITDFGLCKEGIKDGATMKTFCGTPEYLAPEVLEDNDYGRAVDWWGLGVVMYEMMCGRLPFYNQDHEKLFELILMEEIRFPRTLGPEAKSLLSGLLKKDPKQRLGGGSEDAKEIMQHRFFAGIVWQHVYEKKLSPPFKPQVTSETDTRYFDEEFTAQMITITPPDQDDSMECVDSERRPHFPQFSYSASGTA

The target in the first assay is Full-length inactive AKT1 (Homo sapiens, UniProt P31749). Put plainly: Inactive Akt Alpha Screen Assay. The format is biochemical. Particulars: AlphaScreen assay (values not marked with *); read-out: Akt1 IC50, (AlphaScreen) (μM) (or if marked with “*” HTRF assay). In a few lines:
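AlphaScreen read-out (excitation 640 nm, emission 570 nm) after 90 min incubation at room temperature in the dark. Signal comes from crosstide phosphorylation by AKT1, which was activated by added PDK1, MAPKAPK2, ATP and lipid vesicles, captured via phospho-AKT substrate antibody and streptavidin beads.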
(In general: Alpha assays give light when donor and acceptor beads are brought close together.)
Consider `Nc1ncccc1-c1nc2ccc(-c3ccnc(N4CCOCC4)c3)nc2n1-c1ccc(C2(N)CCC2)cc1` [Example 439, 3-{3-[4-(1-aminocyclobutyl)phenyl]-5-(2-morpholin-4-ylpyridin-4-yl)-3H-imidazo[4,5-b]pyridin-2-yl}pyridin-2-amine], for which the IC50 came out at 0.0026 µM.

Staying with this assay, now noted: values not marked with "*": AlphaScreen assay; read-out: Akt1 IC50, (AlphaScreen).
Consider `COc1ccc(NC(=O)Cc2ccc(-n3c(-c4cccnc4N)nc4cccnc43)cc2)c(OC)c1` [Example 116], for which the half-inhibitory concentration (IC50) worked out at 0.595 µM. Same read-out and setting: in the case of `Nc1ncccc1-c1nc2cc(Br)cnc2n1-c1ccc(CNS(=O)(=O)c2ccc(F)c(Cl)c2)cc1` [Example 150, N-{4-[2-(2-aminopyridin-3-yl)-6-bromo-3H-imidazo[4,5-b]pyridin-3-yl]benzyl}-3-chloro-4-fluorobenzenesulfonamide] it was 2.3 µM; in that of `COc1ccccc1C(=O)NCc1ccc(-n2c(-c3cccnc3N)nc3cccnc32)cc1` [Example 50], 2.61 µM. The same measure, in the same setting: the value for `CC(C)CS(=O)(=O)NCc1ccc(-n2c(-c3cccnc3N)nc3cc(Br)cnc32)cc1` [Example 152, N-{4-[2-(2-aminopyridin-3-yl)-6-bromo-3H-imidazo[4,5-b]pyridin-3-yl]benzyl}-2-methylpropane-1-sulfonamide] was 0.24 µM; that for `Nc1ncccc1-c1nc2cccnc2n1-c1ccc(CNC(=O)Nc2ccccc2Cl)cc1` [Example 90] was 0.394 µM. Still for that read-out and setting: the value for `CC1=NN(c2ccc(C(=O)NCc3ccc(-n4c(-c5cccnc5N)nc5cccnc54)cc3)cc2)C(=O)C1` [Example 79] was 1.11 µM; that for `CC(C)(C)OC(=O)NCc1ccc(-n2c(-c3cccnc3N)nc3cccnc32)cc1` [Example 9] was 2.47 µM. On to `Nc1ncccc1-c1nc2cccnc2n1-c1ccc(CN2CCOCC2)cc1` [Example 15], for which the IC50 came out at 1.79 µM.

The same assay, now with this note: values not marked with "*"; read-out: Akt1 IC50, (AlphaScreen).
With `Nc1ncccc1-c1nc2ccc(-c3ccc4cc[nH]c4c3)nc2n1-c1ccc(CNC(=O)c2cccc(F)c2)cc1` [Example 331, N-(4-(2-(2-aminopyridin-3-yl)-5-(1H-indol-6-yl)-3H-imidazo[4,5-b]pyridin-3-yl)benzyl)-3-fluorobenzamide], the IC50 was found to be 0.42 µM.

In the case of `Cc1ccnc2c1nc(-c1cccnc1N)n2-c1ccc(CNC(=O)c2ccccc2)cc1` [Example 210, N-(4-(2-(2-aminopyridin-3-yl)-7-methyl-3H-imidazo[4,5-b]pyridin-3-yl)benzyl)benzamide], the 50% inhibitory concentration (IC50) came to 0.21 µM. The same measure, in the same setting: the value for `Nc1ncccc1-c1nc2ccc(-c3cccc(N4CCOCC4)c3)nc2n1-c1ccc(C2(N)CCC2)cc1` [Example 390, 3-(3-(4-(1-aminocyclobutyl)phenyl)-5-(3-morpholinophenyl)-3H-imidazo[4,5-b]pyridin-2-yl)pyridin-2-amine] was 0.0023 µM.

With `Nc1ncccc1-c1nc2ccc(-c3ccc(C(=O)O)o3)nc2n1-c1ccc(CNC(=O)c2cccc(F)c2)cc1` [Example 312, 5-(2-(2-aminopyridin-3-yl)-3-(4-((3-fluoro-benzamido)methyl)phenyl)-3H-imidazo[4,5-b]pyridin-5-yl)furan-2-carboxylic acid], the IC50 stood at 0.034 µM. For `Cc1cc2nc(-c3cccnc3N)n(-c3ccc(CNC(=O)c4ccccc4)cc3)c2nc1-c1ccccc1` [Example 345, N-(4-(2-(2-aminopyridin-3-yl)-6-methyl-5-phenyl-3H-imidazo[4,5-b]pyridin-3-yl)benzyl)benzamide], the IC50 is 0.044 µM. Same read-out and setting: in the case of `Cc1ccnc2c1nc(-c1cccnc1N)n2-c1ccc(CNC(=O)c2cccc(F)c2)cc1` [Example 190, N-(4-(2-(2-aminopyridin-3-yl)-7-methyl-3H-imidazo[4,5-b]pyridin-3-yl)benzyl)-3-fluorobenzamide] it was 0.11 µM; in that of `Nc1ncccc1-c1nc2ccc(-c3cc[nH]c3)nc2n1-c1ccc(C2(N)CCC2)cc1` [Example 408, 3-{3-[4-(1-aminocyclobutyl)phenyl]-5-(1H-pyrrol-3-yl)-3H-imidazo[4,5-b]pyridin-2-yl}pyridin-2-amine], 0.0024 µM.

For the molecule `Nc1ncccc1-c1nc2cc(-c3cccnc3)cnc2n1-c1ccc(CNS(=O)(=O)C2CC2)cc1` [Example 205, N-(4-(2-(2-aminopyridin-3-yl)-6-(pyridin-3-yl)-3H-imidazo[4,5-b]pyridin-3-yl)benzyl)cyclopropanesulfonamide], the IC50 came to 0.059 µM. Still for that read-out and setting: in the case of `COc1ccc(S(=O)(=O)NCc2ccc(-n3c(-c4cccnc4N)nc4cc(Br)cnc43)cc2)cc1` [Example 177, N-{4-[2-(2-aminopyridin-3-yl)-6-bromo-3H-imidazo[4,5-b]pyridin-3-yl]benzyl}-4-methoxybenzenesulfonamide] it was 2.1 µM; in that of `COc1cccc(-c2ccc3nc(-c4cccnc4N)n(-c4ccc(C5(N)CCC5)cc4)c3n2)c1F` [Example 421, 3-{3-[4-(1-aminocyclobutyl)phenyl]-5-(2-fluoro-3-methoxyphenyl)-3H-imidazo[4,5-b]pyridin-2-yl}pyridin-2-amine], 0.017 µM. Still for that read-out and setting: the value for `CCOC(=O)c1cccc(-c2ccc3nc(-c4cccnc4N)n(-c4ccc(C5(N)CCC5)cc4)c3n2)c1` [Example 364, ethyl 3-(3-(4-(1-aminocyclobutyl)phenyl)-2-(2-aminopyridin-3-yl)-3H-imidazo[4,5-b]pyridin-5-yl)benzoate] was 0.0016 µM; that for `Cc1ccc2cc(NC(=O)Cc3ccc(-n4c(-c5cccnc5N)nc5cc(Br)cnc54)cc3)ccc2n1` [Example 298, 2-(4-(2-(2-aminopyridin-3-yl)-6-bromo-3H-imidazo[4,5-b]pyridin-3-yl)phenyl)-N-(2-methylquinolin-6-yl)acetamide] was 0.014 µM. On the same count and under the same terms, the value for `Nc1ncccc1-c1nc2cc(F)cnc2n1-c1ccc(CC(=O)Nc2ccccc2)cc1` [Example 234, 2-(4-(2-(2-aminopyridin-3-yl)-6-fluoro-3H-imidazo[4,5-b]pyridin-3-yl)phenyl)-N-phenylacetamide] was 0.053 µM; that for `CN(C)Cc1cccc(-c2ccc3nc(-c4cccnc4N)n(-c4ccc(C5(N)CCC5)cc4)c3n2)c1` [Example 398, 3-(3-(4-(1-aminocyclobutyl)phenyl)-5-(3-((dimethylamino)methyl)phenyl)-3H-imidazo[4,5-b]pyridin-2-yl)pyridin-2-amine] was 0.0064 µM; that for `Cc1cnc2c(c1)nc(-c1cccnc1N)n2-c1ccc(CC(=O)Nc2ccccc2)cc1` [Example 195, 2-(4-(2-(2-aminopyridin-3-yl)-6-methyl-3H-imidazo[4,5-b]pyridin-3-yl)phenyl)-N-phenylacetamide] was 0.076 µM. For `CC(=O)Nc1cccc(C(=O)NCc2ccc(-n3c(-c4cccnc4N)nc4cc(C)c(C)nc43)cc2)c1` [Example 347, 3-acetamido-N-(4-(2-(2-aminopyridin-3-yl)-5,6-dimethyl-3H-imidazo[4,5-b]pyridin-3-yl)benzyl)benzamide], the IC50 was 0.054 µM. Same read-out and setting: the value for `Cc1cccc(S(=O)(=O)NCc2ccc(-n3c(-c4cccnc4N)nc4cc(Br)cnc43)cc2)c1` [Example 163, N-{4-[2-(2-aminopyridin-3-yl)-6-bromo-3H-imidazo[4,5-b]pyridin-3-yl]benzyl}-3-methylbenzenesulfonamide] was 0.4 µM; that for `CC(=O)Nc1ccc(-c2ccc3nc(-c4cccnc4N)n(-c4ccc(NC(=O)c5ccccc5)cc4)c3n2)cc1` [Example 253, N-(4-(5-(4-acetamidophenyl)-2-(2-aminopyridin-3-yl)-3H-imidazo[4,5-b]pyridin-3-yl)phenyl)benzamide] was 0.027 µM; that for `COC(=O)C1(c2ccc(-n3c(-c4cccnc4N)nc4cc(-c5ccccc5)cnc43)cc2)CCC1` [Example 361, methyl 1-(4-(2-(2-aminopyridin-3-yl)-6-phenyl-3H-imidazo[4,5-b]pyridin-3-yl)phenyl)cyclobutanecarboxylate] was 0.36 µM. On the same count and under the same terms, the value for `Nc1ncccc1-c1nc2ccc(-c3cncnc3)nc2n1-c1ccc(C2(N)CCC2)cc1` [Example 395, 3-(3-(4-(1-aminocyclobutyl)phenyl)-5-(pyrimidin-5-yl)-3H-imidazo[4,5-b]pyridin-2-yl)pyridin-2-amine] was 0.0098 µM; that for `Nc1ncccc1-c1nc2ccc(Cl)nc2n1-c1ccc(CNC(=O)c2ccccc2)cc1` [Example 198, N-(4-(2-(2-aminopyridin-3-yl)-5-chloro-3H-imidazo[4,5-b]pyridin-3-yl)benzyl)benzamide] was 0.061 µM; that for `CC(C)(C)OC(=O)NCc1ccc(-n2c(-c3cccnc3N)nc3cc(-c4cccnc4)cnc32)cc1` [Example 250, tert-butyl 4-(2-(2-aminopyridin-3-yl)-6-(pyridin-3-yl)-3H-imidazo[4,5-b]pyridin-3-yl)benzylcarbamate] was 0.2 µM. Take `COc1ccc(F)c(-c2ccc3nc(-c4cccnc4N)n(-c4ccc(C5(N)CCC5)cc4)c3n2)c1` [Example 413, 3-{3-[4-(1-aminocyclobutyl)phenyl]-5-(2-fluoro-5-methoxyphenyl)-3H-imidazo[4,5-b]pyridin-2-yl}pyridin-2-amine]: the IC50 is 0.007 µM. Consider `Cc1cnc2c(c1)nc(-c1cccnc1N)n2-c1ccc(CNC(=O)c2ccc(Cl)cc2F)cc1` [Example 217, N-(4-(2-(2-aminopyridin-3-yl)-6-methyl-3H-imidazo[4,5-b]pyridin-3-yl)benzyl)-4-chloro-2-fluorobenzamide], for which the IC50 was determined as 0.084 µM. Still for that read-out and setting: the value for `COc1ccc(-c2ccc3nc(-c4cccnc4N)n(-c4ccc(C5(N)CCC5)cc4)c3n2)cc1O` [Example 429, 5-{3-[4-(1-aminocyclobutyl)phenyl]-2-(2-aminopyridin-3-yl)-3H-imidazo[4,5-b]pyridin-5-yl}-2-methoxyphenol] was 0.0095 µM; that for `Cc1ccc2cc(NC(=O)Cc3ccc(-n4c(-c5cccnc5N)nc5cc(-c6cccnc6)cnc54)cc3)ccc2n1` [Example 318, 2-(4-(2-(2-aminopyridin-3-yl)-6-(pyridin-3-yl)-3H-imidazo[4,5-b]pyridin-3-yl)phenyl)-N-(2-methylquinolin-6-yl)acetamide] was 0.019 µM.

For orientation: IC50 means the concentration that inhibits the measured activity by half.
